From patent US8426449B2, “Aminoalkylphenyl antagonists of prostaglandin D2 receptors” (Panmira Pharmaceuticals, LLC, priority 2008, dated 2013)

Target: T1, human DP2 receptor (Homo sapiens, UniProt Q9Y5Y4)
T1 construct: expressed in transfected cells
T1 sequence (Q9Y5Y4 1-395): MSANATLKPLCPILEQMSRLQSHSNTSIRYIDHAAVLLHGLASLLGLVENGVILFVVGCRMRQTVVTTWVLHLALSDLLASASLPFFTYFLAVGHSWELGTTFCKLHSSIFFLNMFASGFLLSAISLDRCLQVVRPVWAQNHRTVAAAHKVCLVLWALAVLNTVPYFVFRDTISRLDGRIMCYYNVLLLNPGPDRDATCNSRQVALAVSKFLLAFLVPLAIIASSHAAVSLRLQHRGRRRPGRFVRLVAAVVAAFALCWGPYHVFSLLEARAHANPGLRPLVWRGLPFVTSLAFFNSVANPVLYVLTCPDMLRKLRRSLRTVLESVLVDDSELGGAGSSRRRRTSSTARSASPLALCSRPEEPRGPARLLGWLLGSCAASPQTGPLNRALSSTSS
Assay: DP2/CRTH2 radioligand binding assay using [3H]PGD2
Conditions: hDP2 (CRTH2) binding assay, membranes of HEK293 cells expressing recombinant human DP2
Description: The ability of a compound to bind to the human DP2 receptor is assessed via a radioligand binding assay using [^3H]PGD2. HEK293 cells stably expressing recombinant human DP2 are resuspended in 10 mM Hepes, 7.4 containing 1 mM DTT, lysed and centrifuged at 75,000×g to pellet the membranes. The membranes are resuspended in 10 mM Hepes, 7.4 containing 1 mM DTT and 10% glycerol to approximately 5 mg protein/ml. Membranes (2-10 μg protein/well) are incubated in 96-well plates with 1 nM [^3H]PGD2 and test compound in Assay Buffer (50 mM Hepes, 10 mM MnCl2, 1 mM EDTA, plus or minus 0.2% human serum albumin, pH 7.4) for 60 minutes at room temperature. The reactions are terminated by rapid filtration through Whatman GF/C glass fibre filter plates. The filter plates were pre-soaked in 0.33% polyethylenimine for 30 minutes at room temperature then washed in Wash Buffer (50 mM Hepes, 0.5 M NaCl pH 7.4) prior to harvesting. After harvesting, the filter plates are washed 3 times with 1 ml cold Wash Buffer then dried. Scintillant is then added to the plates and the radioactivity retained on the filters is determined on a Packard TopCount (Perkin Elmer). Specific binding is determined as total radioactive binding minus non-specific binding in the presence of 10 μM PGD2. IC50s were determined using GraphPad prism analysis of drug titration curves.

Row | SMILES | IC50 [µM]
1 | CCN(Cc1cc(C(F)(F)F)ccc1Oc1cc(CC(=O)O)ccc1OC)C(=O)OC [Compound 1-36, (3-{2-[(Ethyl-methoxycarbonyl-amino)-methyl]-4-trifluoromethyl-phenoxy}-4-methoxy-phenyl)-acetic acid] | > 0.3
2 | CCN(Cc1cc(C(F)(F)F)ccc1Oc1cccc(CC(=O)O)c1)S(=O)(=O)c1ccc2ccccc2c1 [Compound 1-30, [3-(2-{[Ethyl-(naphthalene-2-sulfonyl)-amino]-methyl}-4-trifluoromethyl-phenoxy)-phenyl]-acetic acid] | < 0.3
3 | CN(Cc1cc(C(F)(F)F)ccc1Oc1cccc(CC(=O)O)c1)S(=O)(=O)c1ccc(Cl)cc1 [Compound 1-23, [3-(2-{[(4-Chloro-benzenesulfonyl)-methyl-amino]-methyl}-4-trifluoromethyl-phenoxy)-phenyl]-acetic acid] | < 0.3
4 | CCN(Cc1cc(C(F)(F)F)ccc1Oc1cccc(CC(=O)O)c1)S(=O)(=O)c1ccc(Nc2cccc(C)c2)cc1 [Compound 1-32, [3-(2-{[Ethyl-(4-m-tolylamino-benzenesulfonyl)-amino]-methyl}-4-trifluoromethyl-phenoxy)-phenyl]-acetic acid] | < 0.3
5 | COc1ccc(CC(=O)O)cc1Oc1ccc(Br)cc1CN(Cc1ccccc1)C(C)=O [Compound 1-9, (3-{2-[(Acetyl-benzyl-amino)-methyl]-4-bromo-phenoxy}-4-methoxy-phenyl)-acetic acid] | < 0.3
6 | CCN(Cc1cc(C(F)(F)F)ccc1Oc1cccc(CC(=O)O)c1)C(=O)Cc1ccccc1 [Compound 1-18, (3-{2-[(Ethyl-phenylacetyl-amino)-methyl]-4-trifluoromethyl-phenoxy}-phenyl)-acetic acid] | > 0.3
7 | COc1ccc(S(=O)(=O)N(C)Cc2cc(C(F)(F)F)ccc2Oc2cccc(CC(=O)O)c2)cc1 [Compound 1-25, [3-(2-{[(4-Methoxy-benzenesulfonyl)-methyl-amino]-methyl}-4-trifluoromethyl-phenoxy)-phenyl]-acetic acid] | > 0.3
8 | CCN(Cc1cc(NC(=O)c2ccc(Cl)cc2)ccc1Oc1cc(CC(=O)O)ccc1OC)C(=O)OCc1ccccc1 [Compound 1-44, {3-[2-[(Benzyloxycarbonyl-ethyl-amino)-methyl]-4-(4-chloro-benzoylamino)-phenoxy]-4-methoxy-phenyl}-acetic acid] | < 0.3
9 | COC(=O)N(Cc1cc(N(C)S(C)(=O)=O)ccc1Oc1cccc(CC(=O)O)c1)[C@@H](C)Cc1ccccc1 [Compound 1-42, [3-(4-(Methanesulfonyl-methyl-amino)-2-{[methoxycarbonyl-((S)-1-methyl-2-phenyl-ethyl)-amino]-methyl}-phenoxy)-phenyl]-acetic acid] | > 0.3
10 | COC(=O)N(Cc1ccccc1)Cc1cc(Br)ccc1Oc1cc(CC(=O)O)ccc1OC [Compound 1-11, (3-{2-[(Benzyl-methoxycarbonyl-amino)-methyl]-4-bromo-phenoxy}-4-methoxy-phenyl)-acetic acid] | < 0.3
11 | COC(=O)N(Cc1cc(C(F)(F)F)ccc1Oc1cccc(CC(=O)O)c1)C1CCc2ccccc21 (stereo in doubt) [Compound 1-19, (3-{2-[((R)-Indan-1-yl-methoxycarbonyl-amino)-methyl]-4-trifluoromethyl-phenoxy}-phenyl)-acetic acid] | < 0.3
12 | CC(=O)N(Cc1cc(Br)ccc1Oc1cccc(CC(=O)O)c1)C(C)(C)Cc1ccc(F)cc1 [Compound 1-2, {3-[2-({Acetyl-[2-(4-fluoro-phenyl)-1,1-dimethyl-ethyl]-amino}-methyl)-4-bromo-phenoxy]-phenyl}-acetic acid] | < 0.3
13 | O=C(O)Cc1cccc(Oc2ccc(Br)cc2CN(C(=O)OCc2ccccc2)C2CCc3ccccc32)c1 (stereo in doubt) [Compound 1-6, (3-{2-[((R)-Benzyloxycarbonyl-indan-1-yl-amino)-methyl]-4-bromo-phenoxy}-phenyl)-acetic acid] | < 0.3
14 | CCN(Cc1cc(Br)ccc1Oc1cc(CC(=O)O)ccc1OC)C(=O)OC [Compound 1-10, (3-{4-Bromo-2-[(ethyl-methoxycarbonyl-amino)-methyl]-phenoxy}-4-methoxy-phenyl)-acetic acid] | < 0.3
15 | COC(=O)N(Cc1cc(N(C)C(C)=O)ccc1Oc1cccc(C(C)C(=O)O)c1)[C@@H](C)Cc1ccccc1 (stereo partly drawn) [Compound 1-40, 2-[3-(4-(Acetyl-methyl-amino)-2-{[methoxycarbonyl-((S)-1-methyl-2-phenyl-ethyl)-amino]-methyl}-phenoxy)-phenyl]-propionic acid] | > 0.3
16 | COC(=O)N(Cc1ccccc1)Cc1cc(C(F)(F)F)ccc1Oc1cc(CC(=O)O)ccc1OC [Compound 1-37, (3-{2-[(Benzyl-methoxycarbonyl-amino)-methyl]-4-trifluoromethyl-phenoxy}-4-methoxy-phenyl)-acetic acid] | < 0.3
17 | CCN(Cc1cc(NC(=O)C(C)(C)C)ccc1Oc1cc(CC(=O)O)ccc1OC)C(=O)C1CC1 [Compound 1-47, {3-[2-[(Cyclopropanecarbonyl-ethyl-amino)-methyl]-4-(2,2-dimethyl-propionylamino)-phenoxy]-4-methoxy-phenyl}-acetic acid] | < 0.3
18 | COc1ccc(CC(=O)O)cc1Oc1ccc(Br)cc1CN[C@H]1c2ccccc2C[C@H]1O [Compound 1-7, (3-{4-Bromo-2-[((1S,2R)-2-hydroxy-indan-1-ylamino)-methyl]-phenoxy}-4-methoxy-phenyl)-acetic acid] | > 1
19 | CN(Cc1cc(C(F)(F)F)ccc1Oc1cccc(CC(=O)O)c1)C(=O)OCc1ccccc1 [Compound 1-21, (3-{2-[(Benzyloxycarbonyl-methyl-amino)-methyl]-4-trifluoromethyl-phenoxy}-phenyl)-acetic acid] | < 0.3
